From patent US7855174B2 (priority 2007, dated 2010)
pEC50: −log10 of the molar value. Read-outs that look alike come from different tables or passages of the source.

Tests used:
rat mesenteric arteries = assay: tissue or blood
MLC = tested on: MLC; set-up: species or system rat

SMILES: NC[C@H](O)c1ccc(O)c(O)c1 [NE, norepinephrine]
- pEC50 (rat mesenteric arteries; read-out: EC50 of concentration-contraction relationship): 5.96
- pEC50 (rat mesenteric arteries; read-out: apparent EC50 for NE (contraction)): 7.47
- pEC50 (rat mesenteric arteries; read-out: approximate EC50 in isolated vessels): ~6.00
- change of Ser19 pMLC and total pMLC with concentration (MLC): increases in both total pMLC and Ser19 pMLC
